Data as given in patent publication US11076594B2, “Pyrazolone compound or salt thereof, preparation method therefor, herbicide composition and use thereof” (QINGDAO KINGAGROOT CHEMICAL COMPOUNDS CO., LTD., priority 2015, dated 2021).

Tests used:
Type in all cases: in vivo
rice (japonica rice) = assay: transplanted rice safety evaluation; conditions: 125 g/ha ai; treated 5 days after transplantation; 21 days after treatment
Method: The activity level standard of harmful plant destruction (i.e. growth control rate) is as follows: In addition, the rice field soil that loaded into the 1/1,000,000 ha pot was leveled to keep water storage at 3-4 cm depth. The 3 leaf stage rice (japonica rice) was transplanted at 3 cm of transplanting depth the next day. The compound of the present invention was treated by the same way after 5 days of transplantation. The fertility condition of echinochloa, scirpus juncoides, bidens tripartite and sagittaria trifolia 14 days after the treatment of the compound of the invention and the fertility condition of rice 21 days after the treatment of the compound of the invention respectively with the naked eye.

wheat = assay: post-emergence stage experiment, crop (Table 1); conditions: post-emergence spray at 4-5 leaf stage, 250 g/ha active ingredient with 450 kg/ha water, rated after 3 weeks in greenhouse
In short: (§1)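 Post-emergence spray: compounds dissolved in acetone, Tween 80 added, diluted with water, applied to plants at 4-5 leaf stage. Plants kept 3 wk in greenhouse; activity scored as fresh-weight control rate.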

corn = assay: post-emergence stage experiment, crop (Table 1); conditions: post-emergence spray at 4-5 leaf stage, 250 g/ha active ingredient with 450 kg/ha water, rated after 3 weeks in greenhouse
In short: as §1

rice = assay: post-emergence stage experiment, crop (Table 1); conditions: post-emergence spray at 4-5 leaf stage, 250 g/ha active ingredient with 450 kg/ha water, rated after 3 weeks in greenhouse
In short: as §1

bidens tripartite = assay: weed control effect evaluation in rice field; set-up: key: Level 10: completely dead; Level 9: above 95% growth control rate; Level 8: above 90% growth control rate; Level 7: above 80% growth control rate; Level 6: above 70% growth control rate; Level 5: above 60% growth control rate; Level 4: above 50% growth control rate; Level 3: above 20% growth control rate; Level 2: 5%-20% growth control rate; Level 1: below 5% growth control rate; conditions: 125 g/ha ai; rice field pot; 14 days after treatment; resistant to pyrazosulfuron-ethyl
From the text: (§2) The activity level standard of harmful plant destruction (i.e. growth control rate) is as follows: Rice field soil was loaded into a 1/1,000,000 ha pot. The seeds of echinochloa, scirpus juncoides, bidens tripartite and sagittaria trifolia were sowed and gently covered with soil, then left to stand still in greenhouse in the state of 0.5-1 cm of water storage. The tuber of sagittaria trifolia was planted in the next day or 2 days later. It was kept at 3-4 cm of water storage thereafter. The weeds were treated by dripping the WP or SC water diluents prepared according to the common preparation method of the compounds of the present invention with pipette homogeneously to achieve specified effective amount when echinochloa, scirpus juncoides and bidens tripartite reached 0.5 leaf stage and sagittaria trifolia reached the time point of primary leaf stage. The fertility condition of echinochloa, scirpus juncoides, bidens tripartite and sagittaria trifolia 14 days after the treatment of the compound of the invention and the fertility condition of rice 21 days after the treatment of the compound of the invention respectively with the naked eye.

sagittaria trifolia = assay: weed control effect evaluation in rice field; set-up: key: Level 10: completely dead; Level 9: above 95% growth control rate; Level 8: above 90% growth control rate; Level 7: above 80% growth control rate; Level 6: above 70% growth control rate; Level 5: above 60% growth control rate; Level 4: above 50% growth control rate; Level 3: above 20% growth control rate; Level 2: 5%-20% growth control rate; Level 1: below 5% growth control rate; conditions: 125 g/ha ai; rice field pot; 14 days after treatment; resistant to pyrazosulfuron-ethyl
From the text: as §2

scirpus juncoides = assay: weed control effect evaluation in rice field; set-up: key: Level 10: completely dead; Level 9: above 95% growth control rate; Level 8: above 90% growth control rate; Level 7: above 80% growth control rate; Level 6: above 70% growth control rate; Level 5: above 60% growth control rate; Level 4: above 50% growth control rate; Level 3: above 20% growth control rate; Level 2: 5%-20% growth control rate; Level 1: below 5% growth control rate; conditions: 125 g/ha ai; rice field pot; 14 days after treatment; resistant to pyrazosulfuron-ethyl
From the text: as §2

echinochloa [1] = assay: weed control effect evaluation in rice field; set-up: key: Level 10: completely dead; Level 9: above 95% growth control rate; Level 8: above 90% growth control rate; Level 7: above 80% growth control rate; Level 6: above 70% growth control rate; Level 5: above 60% growth control rate; Level 4: above 50% growth control rate; Level 3: above 20% growth control rate; Level 2: 5%-20% growth control rate; Level 1: below 5% growth control rate; conditions: 125 g/ha ai; rice field pot; 14 days after treatment; resistant to pyrazosulfuron-ethyl
From the text: as §2

Indian mallow = assay: weed control effect in post-emergence stage (Table 1); set-up: key: Level 10: completely dead; Level 9: above 95% growth control rate; Level 8: above 90% growth control rate; Level 7: above 80% growth control rate; Level 6: above 70% growth control rate; Level 5: above 60% growth control rate; Level 4: above 50% growth control rate; Level 3: above 20% growth control rate; Level 2: 5%-20% growth control rate; Level 1: below 5% growth control rate; conditions: post-emergence spray at 4-5 leaf stage, 250 g/ha active ingredient with 450 kg/ha water, rated after 3 weeks in greenhouse
In short: as §1

rorippa indica = assay: as above; set-up: key: Level 10: completely dead; Level 9: above 95% growth control rate; Level 8: above 90% growth control rate; Level 7: above 80% growth control rate; Level 6: above 70% growth control rate; Level 5: above 60% growth control rate; Level 4: above 50% growth control rate; Level 3: above 20% growth control rate; Level 2: 5%-20% growth control rate; Level 1: below 5% growth control rate; conditions: post-emergence spray at 4-5 leaf stage, 250 g/ha active ingredient with 450 kg/ha water, rated after 3 weeks in greenhouse
In short: as §1

bidens bipinnata = assay: as above; set-up: key: Level 10: completely dead; Level 9: above 95% growth control rate; Level 8: above 90% growth control rate; Level 7: above 80% growth control rate; Level 6: above 70% growth control rate; Level 5: above 60% growth control rate; Level 4: above 50% growth control rate; Level 3: above 20% growth control rate; Level 2: 5%-20% growth control rate; Level 1: below 5% growth control rate; conditions: post-emergence spray at 4-5 leaf stage, 250 g/ha active ingredient with 450 kg/ha water, rated after 3 weeks in greenhouse
In short: as §1

foxtail = assay: as above; set-up: key: Level 10: completely dead; Level 9: above 95% growth control rate; Level 8: above 90% growth control rate; Level 7: above 80% growth control rate; Level 6: above 70% growth control rate; Level 5: above 60% growth control rate; Level 4: above 50% growth control rate; Level 3: above 20% growth control rate; Level 2: 5%-20% growth control rate; Level 1: below 5% growth control rate; conditions: post-emergence spray at 4-5 leaf stage, 250 g/ha active ingredient with 450 kg/ha water, rated after 3 weeks in greenhouse
In short: as §1

crab grass = assay: as above; set-up: key: Level 10: completely dead; Level 9: above 95% growth control rate; Level 8: above 90% growth control rate; Level 7: above 80% growth control rate; Level 6: above 70% growth control rate; Level 5: above 60% growth control rate; Level 4: above 50% growth control rate; Level 3: above 20% growth control rate; Level 2: 5%-20% growth control rate; Level 1: below 5% growth control rate; conditions: post-emergence spray at 4-5 leaf stage, 250 g/ha active ingredient with 450 kg/ha water, rated after 3 weeks in greenhouse
In short: as §1

echinochloa [2] = assay: as above; set-up: key: Level 10: completely dead; Level 9: above 95% growth control rate; Level 8: above 90% growth control rate; Level 7: above 80% growth control rate; Level 6: above 70% growth control rate; Level 5: above 60% growth control rate; Level 4: above 50% growth control rate; Level 3: above 20% growth control rate; Level 2: 5%-20% growth control rate; Level 1: below 5% growth control rate; conditions: post-emergence spray at 4-5 leaf stage, 250 g/ha active ingredient with 450 kg/ha water, rated after 3 weeks in greenhouse
In short: as §1

SMILES	Rice (activity level, transplanted rice safety) (rice (japonica rice))	effect on crop, Wheat (level) (wheat)	effect on crop, Corn (level) (corn)	effect on crop, Rice (level) (rice)	Bidens tripartite weed control effect (activity level) (bidens tripartite)	Sagittaria trifolia weed control effect (activity level) (sagittaria trifolia)	Scirpus juncoides weed control effect (activity level) (scirpus juncoides)	Echinochloa weed control effect (activity level) (echinochloa [1])	weed control effect, Indian mallow (level) (Indian mallow)	weed control effect, Rorippa indica (level) (rorippa indica)	weed control effect, Bidens bipinnata (level) (bidens bipinnata)	weed control effect, Green foxtail (level) (foxtail)	weed control effect, Crab grass (level) (crab grass)	weed control effect, Echinochloa (level) (echinochloa [2])
CCn1nc(C)c(C(=O)c2ccc(C(F)(F)F)c(-n3cccn3)c2Cl)c1O [Compound 128]	1 (Level 1: below 5% growth control rate)	0	0	5 (Level 5: above 60% growth control rate)	6 (Level 6: above 70% growth control rate)	8 (Level 8: above 90% growth control rate)	10	10	3 (Level 3: above 20% growth control rate)	7 (Level 7: above 80% growth control rate)	6 (Level 6: above 70% growth control rate)	10	1 (Level 1: below 5% growth control rate)	10
Cn1nc(C2CC2)c(C(=O)c2ccc(C(F)(F)F)c(N3CCCC3=O)c2Cl)c1O [Compound 025]	0	3 (Level 3: above 20% growth control rate)	4 (Level 4: above 50% growth control rate)	6 (Level 6: above 70% growth control rate)	8 (Level 8: above 90% growth control rate)	10	10	9 (Level 9: above 95% growth control rate)	10	10	8 (Level 8: above 90% growth control rate)	10	6 (Level 6: above 70% growth control rate)	6 (Level 6: above 70% growth control rate)
CCOc1c(C(=O)Oc2c(C(=O)c3ccc(C(F)(F)F)c(-n4cccn4)c3Cl)cnn2C)cnn1C [Compound 065]	3 (Level 3: above 20% growth control rate)	3 (Level 3: above 20% growth control rate)	9 (Level 9: above 95% growth control rate)	3 (Level 3: above 20% growth control rate)	8 (Level 8: above 90% growth control rate)	9 (Level 9: above 95% growth control rate)	9 (Level 9: above 95% growth control rate)	9 (Level 9: above 95% growth control rate)	9 (Level 9: above 95% growth control rate)	9 (Level 9: above 95% growth control rate)	7 (Level 7: above 80% growth control rate)	10	8 (Level 8: above 90% growth control rate)	7 (Level 7: above 80% growth control rate)
